Entries after “also recorded” stand apart in the source; their conditions may differ.
Experiments:
SH-SY5Y cells [1] = test: MPP+-induced cellular death model, apoptosis by caspase-3/7 assay; format: cell-based, human; details: for Caspase 3/7 activity: MPP+ + (3 mM), 3 h
Method: (§1) SH-SY5Y cells were spread on a 96-well plate (70,000 cell/well in 100 μl DMEM low glucose 10% fetal bovine serum) for overnight culturing, from which the culture medium was removed with an aspirator. Then, DMEM without serum was added at 50 μl/well. […] 2 hours later, DMEM without serum containing 18 mM MPP^+ was added at 20 μl/well. (MPP^+ to a final 3 mM concentration.) (For control, DMEM without serum alone was added.)
(§2) 3 hours later, the caspase-3/7 activity was assayed with Apo-One homogenous Caspase-3/7 assay kit (Promega).

[2] = test system: rat cerebral infarction model; test: Rat cerebral infarction model (middle cerebral artery-occluded reperfusion, Koizumi method); format: in vivo; details: for Lesions with cerebral infarction (area in % of damaged site in the 6 sections), Cortex / Lesions with cerebral infarction (area in % of damaged site in the 6 sections), Subcortex / Lesions with cerebral infarction (area in % of damaged site in the 6 sections), Total: 24 h after reperfusion
SH-SY5Y cells [3] = test: Staurosporine-induced cellular death model, viable cells by MTT assay; format: cell-based, human; details: for MTT assay A490: staurosporine + (150 nM), 24 h
Method: Cellular death was induced by adding a protein kinase inhibitor staurosporine to a neuroblastoma SH-SY5Y to examine the effect of PPARδ agonists on the suppression of cellular death. SH-SY5Y cells were plated on a 96-well plate (70,000 cell/well in 100 μl DMEM low glucose 10% fetal bovine serum) for overnight culturing, from which the culture medium was removed with an aspirator. Then, DMEM without serum was added at 50 μl/well. […] 2 hours later, DMEM without serum containing 900 nM staurosporine was added at 20 μl/well. (Staurosporine to a final 150 nM concentration) (For a control, DMEM without serum alone was added.) 24 hours later, the viable cell count was calculated from the absorbance at 490 nm, using Celltiter 96 Aqueous one solution cell proliferation assay kit (Promega).

[4] = test system: murine MPTP Parkinson's model; test: Murine MPTP Parkinson's model, striate body DA and metabolites; format: in vivo, mice; details: for DA content per wet weight of striate body / DOPAC content per wet weight of striate body / HVA content per wet weight of striate body: MPTP +, 4 days after MPTP
SH-SY5Y cells [5] = test: Thapsigargin-induced cellular death model, viable cells by MTT assay; format: cell-based, human; details: for MTT assay A490: thapsigargin + (100 nM), 24 h
Method: SH-SY5Y cells were plated on a 96-well plate (70,000 cell/well in 100 μl DMEM low glucose 10% fetal bovine serum) for overnight culturing, from which the culture medium was removed with an aspirator. Then, DMEM without serum was added at 50 μl/well. […] 2 hours later, DMEM without serum containing 600 nM thapsigargin was added at 20 μl/well. (Thapsigargin to a final 100 nM concentration) (For a control, DMEM without serum alone was added.) 24 hours later, the viable cell count was calculated from the absorbance at 490 nm, using Celltiter 96 Aqueous one solution cell proliferaion assay kit (Promega).

SH-SY5Y cells [6] = test: Staurosporine-induced cellular death model, apoptosis by caspase-3/7 assay; format: cell-based, human; details: for Caspase 3/7 activity: staurosporine + (150 nM), 3 h
Method: as §1, with “900 nM staurosporine” for “18 mM MPP^+”, “(Staurosporine” for “(MPP^+”, “150 nM concentration)” for “3 mM concentration.)”, “(For a” for “(For”, “added).” for “added.)”
as §2

SH-SY5Y cells [7] = test: MPP+-induced cellular death model, dead cells by LDH assay; format: cell-based, human; details: for LDH release A490: MPP+ + (3 mM), 24 h
Method: as §1, with “concentration)” for “concentration.)”, “(For a” for “(For”
24 hours later, the dead cell count was calculated on the basis of the LDH activity assayed with a cytotoxicity detection kit (Roche). […] The results reveal that the PPARδ agonists are effective on the suppression of MPP^+-induced cellular death.

SH-SY5Y cells [8] = test: MPP+-induced cellular death model, viable cells by MTT assay; format: cell-based, human; details: for MTT assay A490: MPP+ + (3 mM), 24 h
Method: as §1, with “concentration)” for “concentration.)”, “(For a” for “(For”, “added).” for “added.)”
24 hours later, cell growth activity was assayed by measuring the absorbance at 490 nm, using Celltiter 96 aqueous one solution cell proliferation assay kit (Promega).
In the assay system, MPP^+ as an MPTP metabolite was added to a neuroblastoma SH-SY5Y, to inhibit the mitochondrial complex I to cause the generation of active oxygen and the inhibition of ATP synthesis, to induce cellular death. It is said that in the murine MPTP model commonly used as a model of Parkinson's disease, MPTP passing through the blood brain barrier is metabolized into MPP^+, which exerts toxicity specific to murine nigra cell to induce nerve detachment. Therefore, the assay system can be said as an in vitro assay system mimicking the murine MPTP model.

With `Cc1cc(SCc2sc(-c3ccc(C(F)(F)F)cc3)nc2C)ccc1OCC(=O)O` [GW501516] the “suppression of caspase-3/7 activity (in words)” value (SH-SY5Y cells [1]; SH-SY5Y, MPP+) was “suppress the activity of caspase-3/7 in a concentration-dependent manner”, the “Caspase 3/7 activity” value (SH-SY5Y cells [1]; compound 0.1 μM) was 847552 ± 36575 RFLU and the “Caspase 3/7 activity” value (SH-SY5Y cells [1]; compound 1 μM) was 621059 ± 26590 RFLU. The “Caspase 3/7 activity” value (SH-SY5Y cells [1]; compound 10 μM) was 798646 ± 54365 RFLU, the “Caspase 3/7 activity” value (SH-SY5Y cells [1]; compound 100 μM) was 398604 ± 55698 RFLU and the “Lesions with cerebral infarction (area in % of damaged site in the 6 sections), Cortex” value ([2]; 24 μg/head/day i.c.v.) was 9.39 ± 1.56%. The “Lesions with cerebral infarction (area in % of damaged site in the 6 sections), Subcortex” value ([2]; 24 μg/head/day i.c.v.) was 9.35 ± 0.65%, the “Lesions with cerebral infarction (area in % of damaged site in the 6 sections), Total” value ([2]; 24 μg/head/day i.c.v.) was 18.74 ± 2.00% and the “Lesions with cerebral infarction (area in % of damaged site in the 6 sections), Cortex” value ([2]; 240 μg/head/day i.c.v.) was 7.26 ± 1.67 %. The “Lesions with cerebral infarction (area in % of damaged site in the 6 sections), Subcortex” value ([2]; 240 μg/head/day i.c.v.) was 7.88 ± 0.79%, the “Lesions with cerebral infarction (area in % of damaged site in the 6 sections), Total” value ([2]; 240 μg/head/day i.c.v.) was 15.14 ± 2.20 % and the “action to reduce cerebral infarction (in words)” value ([2]; rat cerebral infarction model) was “potent actions to reduce cerebral infarction; also recorded: far greater action of reducing cerebral damages”. The “suppression of staurosporine-induced cellular death (in words)” value (SH-SY5Y cells [3]; SH-SY5Y, staurosporine) was “suppression of staurosporine-induced cellular death in a concentration-dependent manner”, the “MTT assay A490” value (SH-SY5Y cells [3]; compound 0.1 μM) was 0.5179 ± 0.0140 and the “MTT assay A490” value (SH-SY5Y cells [3]; compound 1 μM) was 0.5367 ± 0.0149. For the same compound, the “MTT assay A490” value (SH-SY5Y cells [3]; compound 10 μM) was 0.5860 ± 0.0086, the “DA content per wet weight of striate body” value ([4]; 12 μg/head/day) was 7.41 ± 1.27 ng/mg tissue and the “DOPAC content per wet weight of striate body” value ([4]; 12 μg/head/day) was 0.39 ± 0.06 ng/mg tissues. For the same compound, the “HVA content per wet weight of striate body” value ([4]; 12 μg/head/day) was 0.82 ± 0.08 ng/mg tissue, the “DA content per wet weight of striate body” value ([4]; 120 μg/head/day) was 8.98 ± 1.20 ng/mg tissue and the “DOPAC content per wet weight of striate body” value ([4]; 120 μg/head/day) was 0.44 ± 0.04 ng/mg tissues. The “HVA content per wet weight of striate body” value ([4]; 120 μg/head/day) was 0.90 ± 0.05 ng/mg tissue, the “action of suppressing the decrease of the contents of DA, DOPAC and HVA (in words)” value ([4]; any of the doses (12 or 120 μg/head/day)) was “greatly observed” and the “suppression of thapsigargin-induced cellular death (in words)” value (SH-SY5Y cells [5]; SH-SY5Y, thapsigargin) was “suppressed cellular death induced by thapsigargin (TG) in a concentration-dependent manner”. For the same compound, the “MTT assay A490” value (SH-SY5Y cells [5]; compound 0.1 μM) was 0.2978 ± 0.0096, the “MTT assay A490” value (SH-SY5Y cells [5]; compound 1 μM) was 0.3150 ± 0.0135 and the “MTT assay A490” value (SH-SY5Y cells [5]; compound 10 μM) was 0.3478 ± 0.0110. For the same compound, the “MTT assay A490” value (SH-SY5Y cells [5]; compound 100 μM) was 0.2950 ± 0.0033, the “cellular toxicity (in words)” value (SH-SY5Y cells [5]; concentration of 100 μM, thapsigargin model) was “cellular toxicity of GW501516 can be observed” and the “suppression of caspase-3/7 activity (in words)” value (SH-SY5Y cells [6]; SH-SY5Y, staurosporine) was “suppress the activity of caspase-3/7”. The “Caspase 3/7 activity” value (SH-SY5Y cells [6]; compound 0.1 μM) was 586295 ± 18787 RFLU, the “Caspase 3/7 activity” value (SH-SY5Y cells [6]; compound 1 μM) was 463943 ± 12110 RFLU and the “Caspase 3/7 activity” value (SH-SY5Y cells [6]; compound 10 μM) was 420844 ± 13962 RFLU. For the same compound, the “LDH release A490” value (SH-SY5Y cells [7]; compound 0.1 μM) was 0.3633 ± 0.0153, the “LDH release A490” value (SH-SY5Y cells [7]; compound 1 μM) was 0.3222 ± 0.0207 and the “LDH release A490” value (SH-SY5Y cells [7]; compound 10 μM) was 0.2981 ± 0.0154. The “LDH release A490” value (SH-SY5Y cells [7]; compound 100 μM) was 0.7969 ± 0.0251, the “cytotoxicity (in words)” value (SH-SY5Y cells [7]; concentration of 100 μM, MPP+ model) was “exerted cytotoxicity” and the “suppression of MPP+-induced cellular death (in words)” value (SH-SY5Y cells [8]; SH-SY5Y, MPP+) was “suppress cellular death induced by MPP^+ in a concentration-dependent manner”. The “MTT assay A490” value (SH-SY5Y cells [8]; compound 0.1 μM) was 0.3361 ± 0.0073, the “MTT assay A490” value (SH-SY5Y cells [8]; compound 1 μM) was 0.3926 ± 0.0090 and the “MTT assay A490” value (SH-SY5Y cells [8]; compound 10 μM) was 0.3814 ± 0.0156. The “MTT assay A490” value (SH-SY5Y cells [8]; compound 100 μM) was 0.2990 ± 0.0144.

— US20070037882A1, “Remedy for cerebral neurodegenerative diseases using ppar agonist” (Astellas Pharma Inc., priority 2003, published 2007)
